Source: patent US6165732A, “Method for identifying apoptosis modulating compounds” (Washington University, priority 1998, dated 2000)
Read-outs that look alike come from different tables or passages of the source.

Experiments:
[1] = cited from earlier work
[2] = Low pH channel formation after addition of protein to an established planar lipid bilayer; format: biochemical; conditions: for initial current (direction): 450/150 mM KCl cis to trans, pH 4.0, spontaneous (OS); for conductance of initial channel: pH 4.0, initial current; for effect of shifting pH on conductance and selectivity: pH 4.0 to 7.0; for PK/PCl after pH shift to 7.0: pH 7.0 after insertion at pH 4.0; for ion selectivity of channel: low pH insertion
Excerpt: (§1) The Bax and Bcl-2 polypeptides used in the ion channel studies reported herein were recombinant murine Bcl-2 and Bax polypeptides lacking the C-terminal signal-anchor membrane targeting sequence (Bcl-2ΔC21, amino acids 1-218 of SEQ ID NO:9 and BaxΔC19, amino acids 1-173 of SEQ ID NO:6). These deletion derivatives, also referred to herein as BaxΔTM and Bcl-2ΔTM, were used to avoid any interference of the C-terminal signal-anchor membrane targeting sequence with the capacity of internal α helices to mediate insertion into artificial lipid bilayers.
(§2) Planar lipid bilayers were prepared from soybean lipids by chloroform extraction of Azolectin Type II (10-20% choline, 80-90% negatively charged lipids) (Sigma). The chloroform was removed with a stream of nitrogen and the lipids stored under N2 until dissolved in decane at 30 mg/ml. This preparation was then stored under nitrogen. The 0.25 mm orifice of a polystyrene cuvette (Warner Instruments) was pretreated with 2 μl of the decane lipid solution and the solvent allowed to evaporate. The cuvette was then placed into a bilayer chamber and connected to Bilayer Clamp BC525-a (Warner Instruments) by Ag/AgCl electrodes via agar salt bridges. Data were collected using an Axoscope (Axon Instruments Software), archived on video tape using a Neurocorder DR-484 (Neuro Data Instruments), and analyzed using Origin (Microcal) and pClamp6 (Axon Instruments Software). Slope conductance was calculated by the method of least squares and the variance is given. Ion selectivities were calculated using the reversal potential and the Goldman equation. The reversal potential means the zero-current potential of a bilayer membrane. The reversal potential is zero with no ion gradient and the magnitude of the potential in the presence of an ion gradient reflects the cation versus anion selectivity of the bilayer.
Bilayers were formed by spreading with a polished glass rod and allowed to thin to a capacitance of 0.4 μF/cm^2 at which point the noise was typically 0.2 pA and the leak conductance was 20 pS. The salt concentrations were initially 450 mM KCl in the cis chamber (1.0 ml) and 150 mM KCl in the trans chamber (0.5 ml) to permit identification of spontaneous initial currents. Outward (positive) currents were defined as K^+ moving cis-to trans. All solutions were buffered to pH 4.0 with 10 mM K-acetate. BaxΔTM or Bcl-2ΔTM (approx. 1 μg) was added to the cis chamber with mixing. After initial currents were identified the soluble protein was usually removed by exchanging the cis chamber contents with aliquots of buffer.

[3] = Cl- release (efflux) from KCl loaded synthetic lipid vesicles as a function of pH; format: biochemical
Procedure: This example illustrates that Bax and Bcl-2 induce the release of ions from synthetic lipid vesicles.
Unilamellar vesicles composed of 40% 1,2 dioleoyl phosphatidyl glycerol and 60% 1,2 dioleoyl phosphatidyl choline (Avanti Polar Lipids) were prepared in 100 mM KCl, 2 mM CaNO3 and 10 mM dimethylglutarate, pH 5.0 as previously described (Peterson et al., J. Membr. Biol. 99:197-204, 1987). The resulting liposomes were diluted 200-fold to a concentration of 0.05 mg/ml in 100 mM KNO3, 2 mM CaNO3 and 10 mM dimethylglutarate which was titrated to pH 3.5, 4.0, 4.5, 5.0, 5.5 or 6.0 with NaOH or with acetic acid. BaxΔC19 and Bcl-2ΔC21 were added at a concentration of 500 ng/ml and Cl^- efflux was measured with a Cl^- combination ion selective electrode (Accumet). Triton X-100 (0.1%) was added to release the total encapsulated Cl^- at the times indicated by the arrows in FIG. 1. The total amount of Cl^- released was quantitated by a calibration curve produced by successive additions of 25 μM KCl.

[4] = Channels in planar lipid bilayers at pH 7.0 after fusion with unilamellar proteoliposomes containing the protein; format: biochemical; conditions: for conductance pattern / ion selectivity of channel / rectification: neutral pH; for ion selectivity of channel: proteoliposome fusion; for rectification: symmetrical KCl
Excerpt: as §1, §2
Proteoliposomes for fusion with a planar lipid bilayer were prepared as follows. Purified protein (0.25 μg) was added to […] lipid (Azolectin) in 20 μl of KCl buffer (150 mM KCl, 10 mM HEPES, pH 7.0). This mixture was placed into a dialysis bag with a molecular weight cutoff of 12 KDa. After 16 hours dialysis in 3000 volumes of 150 mM KCl (10 mM HEPES, pH 7.0) the proteoliposome suspension was removed and placed on ice for immediate use. The bilayer was set up with a 450:150 cis to trans KCl gradient to identify the ion selectivity of the initial currents. Fusion was initiated by adding 5-20 μl of lipid vesicles (only 5-20 ng of protein) to the cis bilayer chamber with mixing. Non-fused proteoliposomes were removed from the compartments and solutions exchanged as described above.
Control bilayers containing Bcl-2 or Bax channels were prepared by fusion of unilamellar proteoliposomes with incorporated Bcl-2ΔTM or BaxΔTM with an established planar bilayer as described in Example 4. Test bilayers containing Bcl-2 channels were prepared in the same manner to which an 11 mer Bax peptide (SEQ ID NO:1) with known death agonist activity was added at 20, 50 or 100 μM. A voltage of 80 mV was applied to each control and test channel and its conductance measured for a period of 12 to 16 seconds and the frequency that each channel was measured at a particular conductance level (pA) was calculated. The data, representing about 500,000 measurements, are shown as histograms in FIGS. 8A-8E. […]

[5] = cited from earlier work; remark: listed apart in the source
[6] = physiological pH (Antonsson et al.)
[7] = pH 4.0, same quantities of each protein
[8] = stated as behaviour like Bax / Bcl-2 (criterion)
[9] = 450/150 mM KCl gradient, pH 7.0
[10] = planar lipid bilayers, pH 7.0 (Antonsson et al.)

## Bax: recombinant murine Bax polypeptide lacking the C-terminal signal-anchor membrane targeting sequence (amino acids 1-173 of SEQ ID NO:6)
[1]; [6]
  pore-forming activity in liposomes: intrinsic pore-forming activity
[2]
  initial current (direction): initial, inward current
  effect of shifting pH on conductance and selectivity: altered the conductance and selectivity of Bax
  PK/PCl after pH shift to 7.0: 0.5
[2]; 450/150 mM KCl
  conductance of initial channel: 22 (s.d. 5, n=5) pS
[2]; 450/150 mM KCl, listed as BaxΔTM
  conductance of initial channel: 22 pS
[2]; 450/150 mM KCl, pH 4.0, listed as BAXΔTM
  time to appearance of initial current: ≤ 10 min
[2]; 450/150 mM KCl, pH 4.0, listed as BaxΔTM
  time to appearance of initial current: Four
[2]; +40 mV, pH 4.0
  duration of channel transition: ~ 5 mins
[2]; +40 mV, transition, pH 4.0
  current level, C and OS: 0 pA
  current level, O1: 2.36 pA
  current level, O1+2: 8.81 pA
  current level, O2: 6.4 pA
[2]; -40 mV, transition, pH 4.0
  current level, C: 0 pA
  current level, O1: -10.9 pA
  current level, O1+2: -30.5 pA
  current level, OS: -2.14 pA
[2]; hyperpolarization to -40 mV, pH 4.0
  voltage dependence: increased the channel activity
[2]; pH 4.0
  slope conductance of final stable channel: 0.731±0.01 nS
[2]; pH 4.0, from reversal potential
  PK/PCl (Cl- selectivity, average over current levels): 0.10
[2]; pH 7.0
  current-voltage relation: linear with voltage
[2]; pH 7.0, 450/150 mM KCl gradient
  conductance after pH shift to 7.0: 0.329±0.002 nS
[2]; pH 7.0, both chambers 150 mM KCl
  conductance after pH shift to 7.0: 0.302±0.008 nS
[2]; planar bilayers
  time from initial appearance to channel progression: 2 to 4 min
  ion selectivity of channel: consistent anion selectivity
[2]; planar bilayers, listed as BAX
  ion selectivity of channel: Cl^- selective
[3]
  highest pH with retained activity (ion release from liposomes): ≤ 5.5 pH
[3]; 500 ng/ml, FIG. 1A
  pH of maximum release of Cl-: 4.0-4.5 pH
[3]; pH 3.5
  Cl- release from KCl loaded lipid vesicles: 41%
[3]; pH 3.5, 500 ng/ml, FIG. 1A
  release of Cl-, decrease from maximum: 50%
[3]; [7]
  Cl- release from KCl loaded lipid vesicles: 75%
[3]; pH 5.0
  Cl- release from KCl loaded lipid vesicles: 41%
[3]; pH 5.0, 500 ng/ml, FIG. 1A
  release of Cl-, decrease from maximum: 50%
[3]; pH 5.5, 500 ng/ml, FIG. 1A
  release of Cl-, decrease from maximum: less than 10%
[3]; pH 6.0 shifted to pH 4.0, FIG. 1C
  release of Cl- on pH shift: a rapid release of Cl^-
[3]; [8]
  ratio of channel indicator release at pH 3.5 and pH 4.0 (R3.5/4.0): less than 1
[4]; 80 mV, no peptide
  less frequent conductance peak: about 65 pA
[4]; [9]
  PK/PCl from reversal potential: 0.32
  initial current (direction): inward (PK <PCl) current
[4]; -70 mV, symmetrical 150 mM KCl
  duration of periodic channel closing: 20 to 30 ms
[4]
  conductance pattern: simpler single channel conductance pattern
  ion selectivity of channel: Cl^- -selective
  rectification: Mild outward rectification
[4]; symmetrical 150 mM KCl, pH 7.0
  channel conductance at negative voltages: 1.5 (sd 0.3, n=3) nS
[5]; [10]
  ion selectivity: cation selective
  permeability ratio of Na+ to Cl-: about 2.1
[5]; planar lipid bilayers, pH 7.0 (Antonsson et al.), listed as BaxΔTM
  ion selectivity: slightly cation selective

B1: Bcl-2: recombinant murine Bcl-2 polypeptide lacking the C-terminal signal-anchor membrane targeting sequence (amino acids 1-218 of SEQ ID NO:9) (protein)
chain: MAQAGRTGYDNREIVMKYIHYKLSQRGYEWDAGDADAAPLGAAPTPGIFSFQPESNPMPAVHREMAARTSPLRPLVATAGPALSPVPPCVHLTLRRAGDDFSRRYRRDFAEMSSQLHLTPFTARGRFATVVEELFRDGVNWGRIVAFFEFGGVMCVESVNREMSPLVDNIALWMTEYLNRHLHTWIQDNGGWDAFVELYGPSMRPLFDFSWLSLKTLL
[1]; pH above 5.5
  pore forming activity in lipid vesicles: little or no detectable pore forming activity
[1]; pH values below 5.5
  insertion into synthetic lipid vesicles: insert into synthetic lipid vesicles at pH values below 5.5
[1]; [6]
  antagonism of BaxΔTM pore-forming activity in liposomes: antagonized
[2]
  initial current (direction): initial outward
  effect of shifting pH on conductance and selectivity: not Bcl-2
  PK/PCl after pH shift to 7.0: 6.5
[2]; 450/150 mM KCl, pH 4.0
  PK/PCl of initial current: 3.9
  magnitude of initial current: 0.85±0.06 pA
  time to appearance of initial current: ≤ 5 min
[2]; 450/150 mM KCl
  conductance of initial channel: 80.3±0.06 pS
[2]; 450/150 mM KCl, listed as Bcl-2ΔTM
  conductance of initial channel: 80 pS
[2]; pH 4.0
  duration of initial state: 2 to 5 min
  slope conductance of final stable channel: 1.90±0.06 nS
[2]; pH 4.0, with brief closures
  duration of channel open periods: 5 to 10 s
[2]; pH shifted to 7.0, FIG. 4E
  conductance of large pore after pH shift to 7.0: 2.14±0.04 nS
[2]; planar bilayers
  ion selectivity of channel: mild cation selectivity
[3]; by pH 5.0, 500 ng/ml, FIG. 1B
  inactivation of Cl- release: complete inactivation
[3]; pH 3.5
  Cl- release from KCl loaded lipid vesicles: 81%
  relative activity of Bcl-2 versus Bax (Cl- release): twice as active as Bax
[3]; [7]
  Cl- release from KCl loaded lipid vesicles: 75%
[3]; pH 5.0
  Cl- release from KCl loaded lipid vesicles: 7%
[3]; pH 5.0 shifted to 4.0, FIG. 1D
  release of Cl- on pH shift: activated the release of Cl^-
[3]; [8]
  ratio of channel indicator release at pH 3.5 and pH 4.0 (R3.5/4.0): about 1.0
  ratio of indicator release at pH 4.0 and 5.0 (R4.0/5.0): greater than 7.0
[4]; 450/150 mM KCl gradient, FIG. 5A
  single channel current: 5 pA
[4]; [9]
  PK/PCl from reversal potential: 2.4
  initial current (direction): outward (K^+) current
[4]
  conductance pattern: complex multichannel conductance pattern
  ion selectivity of channel: K^+ -selective
  rectification: no rectification
[4]; symmetrical 150 mM KCl
  voltage dependence of open channel current: linear
[4]; symmetrical 150 mM KCl, FIG. 5C
  hyperpolarization beyond which a channel closure occurs: more than -70 mV
[4]; symmetrical 150 mM KCl, pH 7.0
  slope conductance: 1.08 (s.d. 0.10, n=5) nS
[5]; lipid bilayers, physiological pH (Schendel et al.)
  primary channel conductance: 18±2 pS
[5]; pH 5.4 (Schendel et al.)
  ion selectivity: cation selective
[5]; planar lipid bilayers, physiological pH
  multiple conductance states: multiple channel conductance states
